According to US20050197350A1, “Novel quinoline, tetrahydroquinazoline, and pyrimidine derivatives and methods of treatment related to the use thereof” (TAISHO PHARMACEUTICAL CO., LTD., priority 2003, published 2005):

These compounds were tested on MCH receptors (assay: MCH receptor activity class (method not given)). Details: MCH receptor; class by percent of control at 10^-7 M or IC50.

Row | Compound | class
1 | CCC(Oc1ccccc1)C(=O)N[C@H]1CC[C@@H](Nc2cc(N(C)C)c3ccccc3n2)CC1 (relative stereo) [compound 48, N-(cis-4-{[4-(dimethylamino)quinolin-2-yl]amino}cyclohexyl)-2-phenoxybutanamide] | 1 (Class 1: The value of percent of control at 10^−7 M was less than 40% or the value of IC50 was less than 50 nM.)
2 | CC(Oc1ccccc1)C(=O)N[C@H]1CC[C@@H](Nc2cc(N(C)C)c3ccccc3n2)CC1 (relative stereo) [compound 49, N-(cis-4-{[4-(dimethylamino)quinolin-2-yl]amino}cyclohexyl)-2-phenoxypropanamide] | 1 (Class 1: The value of percent of control at 10^−7 M was less than 40% or the value of IC50 was less than 50 nM.)
3 | CCC(C(=O)N[C@H]1CC[C@@H](Nc2cc(N(C)C)c3ccccc3n2)CC1)c1ccccc1 (relative stereo) [compound 66] | 3 (Class 3 The value of percent of control at 10^−7 M was more than 60% or the value of IC50 was more than 200 nM.)
4 | CC(=O)OC(C(=O)N[C@H]1CC[C@@H](Nc2cc(N(C)C)c3ccccc3n2)CC1)c1ccccc1 (relative stereo) [compound 92] | 3 (Class 3 The value of percent of control at 10^−7 M was more than 60% or the value of IC50 was more than 200 nM.)
5 | CCC(Oc1ccccc1)C(=O)NC[C@H]1CC[C@@H](Nc2cc(N(C)C)c3ccccc3n2)CC1 (relative stereo) [compound 175, N-[(cis-4-{[4-(dimethylamino)quinolin-2-yl]amino}cyclohexyl)methyl]-2-phenoxybutanamide] | 3 (Class 3 The value of percent of control at 10^−7 M was more than 60% or the value of IC50 was more than 200 nM.)
6 | CC(Oc1ccccc1)C(=O)NC[C@H]1CC[C@@H](Nc2cc(N(C)C)c3ccccc3n2)CC1 (relative stereo) [compound 176, N-[(cis-4-{[4-(dimethylamino)quinolin-2-yl]amino}cyclohexyl)methyl]-2-phenoxypropanamide] | 3 (Class 3 The value of percent of control at 10^−7 M was more than 60% or the value of IC50 was more than 200 nM.)
7 | CCC(C(=O)NC[C@H]1CC[C@@H](Nc2cc(N(C)C)c3ccccc3n2)CC1)c1ccccc1 (relative stereo) [compound 193] | 3 (Class 3 The value of percent of control at 10^−7 M was more than 60% or the value of IC50 was more than 200 nM.)

Same assay, conditions: class 1-3 by percent of control at 10^-7 M or IC50

Row | Compound | class
8 | CCC(Oc1ccccc1)C(=O)N[C@H]1CC[C@@H](Nc2nc3c(c(N(C)C)n2)CCCC3)CC1 (relative stereo) [compound 484] | 1 (Class 1: The value of percent of control at 10^−7 M was less than 40% or the value of IC50 was less than 50 nM.)
9 | CC(Oc1ccccc1)C(=O)N[C@H]1CC[C@@H](Nc2nc3c(c(N(C)C)n2)CCCC3)CC1 (relative stereo) [compound 485] | 1 (Class 1: The value of percent of control at 10^−7 M was less than 40% or the value of IC50 was less than 50 nM.)
10 | CCC(C(=O)N[C@H]1CC[C@@H](Nc2nc3c(c(N(C)C)n2)CCCC3)CC1)c1ccccc1 (relative stereo) [compound 502] | 3 (Class 3 The value of percent of control at 10^−7 M was more than 60% or the value of IC50 was more than 200 nM.)
11 | CC(=O)OC(C(=O)N[C@H]1CC[C@@H](Nc2nc3c(c(N(C)C)n2)CCCC3)CC1)c1ccccc1 (relative stereo) [compound 528] | 1 (Class 1: The value of percent of control at 10^−7 M was less than 40% or the value of IC50 was less than 50 nM.)

Same assay, conditions: class by percent of control at 10^-7 M or IC50

Row | Compound | class
12 | 4-({[(cis-4-{[4-(dimethylamino)pyrimidin-2-yl]amino}-cyclohexyl)methyl]amino}methyl)-2,6-dimethoxyphenol [compound 1254] | 1 (Class 1: The value of percent of control at 10^−7 M was less than 40% or the value of IC50 was less than 50 nM.)
13 | CCC(Oc1ccccc1)C(=O)N[C@H]1CC[C@@H](Nc2nccc(N(C)C)n2)CC1 (relative stereo) [compound 266, N-(cis-4-{[4-(dimethylamino)pyrimidin-2-yl]amino}cyclohexyl)-2-phenoxybutanamide] | 2 (Class 2: The value of percent of control at 10^−7 M was from 40% to 60% or the value of IC′50 was from 50 nM to 200 nM.)
14 | CC(Oc1ccccc1)C(=O)N[C@H]1CC[C@@H](Nc2nccc(N(C)C)n2)CC1 (relative stereo) [compound 267] | 3 (Class 3 The value of percent of control at 10^−7 M was more than 60% or the value of IC50 was more than 200 nM.)
15 | CCC(C(=O)N[C@H]1CC[C@@H](Nc2nccc(N(C)C)n2)CC1)c1ccccc1 (relative stereo) [compound 284] | 3 (Class 3 The value of percent of control at 10^−7 M was more than 60% or the value of IC50 was more than 200 nM.)
16 | CC(=O)OC(C(=O)N[C@H]1CC[C@@H](Nc2nccc(N(C)C)n2)CC1)c1ccccc1 (relative stereo) [compound 310] | 3 (Class 3 The value of percent of control at 10^−7 M was more than 60% or the value of IC50 was more than 200 nM.)
17 | CCC(Oc1ccccc1)C(=O)NC[C@H]1CC[C@@H](Nc2nccc(N(C)C)n2)CC1 (relative stereo) [compound 393, N-[(cis-4-{[4-(dimethylamino)pyrimidin-2-yl]amino}cyclohexyl)methyl]-2-phenoxybutanamide] | 2 (Class 2: The value of percent of control at 10^−7 M was from 40% to 60% or the value of IC′50 was from 50 nM to 200 nM.)
18 | CC(Oc1ccccc1)C(=O)NC[C@H]1CC[C@@H](Nc2nccc(N(C)C)n2)CC1 (relative stereo) [compound 394] | 3 (Class 3 The value of percent of control at 10^−7 M was more than 60% or the value of IC50 was more than 200 nM.)
19 | CCC(C(=O)NC[C@H]1CC[C@@H](Nc2nccc(N(C)C)n2)CC1)c1ccccc1 (relative stereo) [compound 411, N-[(cis-4-{[4-(dimethylamino)pyrimidin-2-yl]amino}cyclohexyl)methyl]-2-phenylbutanamide] | 1 (Class 1: The value of percent of control at 10^−7 M was less than 40% or the value of IC50 was less than 50 nM.)
20 | CCC(Oc1ccccc1)C(=O)NC[C@H]1CC[C@@H](Nc2nc3c(c(N(C)C)n2)CCCC3)CC1 (relative stereo) [compound 610] | 3 (Class 3 The value of percent of control at 10^−7 M was more than 60% or the value of IC50 was more than 200 nM.)
21 | CC(Oc1ccccc1)C(=O)NC[C@H]1CC[C@@H](Nc2nc3c(c(N(C)C)n2)CCCC3)CC1 (relative stereo) [compound 611] | 3 (Class 3 The value of percent of control at 10^−7 M was more than 60% or the value of IC50 was more than 200 nM.)
22 | CCC(C(=O)NC[C@H]1CC[C@@H](Nc2nc3c(c(N(C)C)n2)CCCC3)CC1)c1ccccc1 (relative stereo) [compound 628] | 3 (Class 3 The value of percent of control at 10^−7 M was more than 60% or the value of IC50 was more than 200 nM.)
23 | CN(C)c1cc(N[C@H]2CC[C@@H](NC(=O)C(Cc3ccccc3)c3ccccc3)CC2)nc2ccccc12 (relative stereo) [compound 678] | 3 (Class 3 The value of percent of control at 10^−7 M was more than 60% or the value of IC50 was more than 200 nM.)
24 | CN(C)c1cc(N[C@H]2CC[C@@H](NC(=O)C3CC(=O)c4ccccc43)CC2)nc2ccccc12 (relative stereo) [compound 684] | 3 (Class 3 The value of percent of control at 10^−7 M was more than 60% or the value of IC50 was more than 200 nM.)
